SMILES | melting point [°C]
CCCC(=O)N(Cc1cccc2c1S(=O)(=O)N=C2C1=C(O)C(C(C)(C)C)N(Cc2ccc(F)c(C)c2)C1=O)S(C)(=O)=O (centres undefined) | 226
COc1cc2cc3c(ccc4ccccc43)nc2cc1OC | 181 to 182
COc1cc(Nc2ncc(-c3ccccc3)o2)ccc1-c1cnco1 | 212 to 215
O=S(=O)(Nc1ccc(OCc2ccc3ccccc3n2)cc1)c1cccc(C(F)(F)F)c1 | 81 to 83
COc1cc(-c2csc(C)n2)cc2oc(=O)c(C)c(C)c12 | 149 to 150
CCCC(NS(=O)(=O)c1ccc(NC(C)=O)cc1)P(=O)(Oc1ccccc1)Oc1ccccc1 (centres undefined) | 183 to 186
Cc1cc(COc2nn(Cc3ccccc3)cc2C=O)ccc1OCc1nc(-c2ccco2)oc1C | 121 to 122
CCCN1CCCC2CC3=C(CCC(=O)N3)CC21 (centres undefined) | 183 to 184
CCCCCCCCCCCCCCCCCCOc1ccc(OCc2ccccc2)c(C(=O)OC)c1 | 52 to 54
CCOC(=O)C(=Cc1ccccc1[N+](=O)[O-])C(=O)C(OCC)OCC | 66 to 67.5
CCCCCS(=O)(=O)NC(=O)OCCCc1ccc(OCCOC)cc1Oc1ncc(C(F)(F)F)cc1Cl | 97.5 to 99
CCCCCCCCCCCCCCOc1ccc(NC(=O)Nc2cccc(CCBr)c2)cc1 | 164 to 169
C1=c2ccccc2=c2c1c1cnccc1c1c2=Cc2ccccc2-1 | 225 to 227
CCCCCCCCNC(=O)[C@@H]1C[C@H]1c1ccc(NC(=O)/C=C\C(=O)O)cc1 (relative stereo) | 178 to 180
Cn1nnnc1SCC(CS(=O)(=O)c1ccc(-c2ccc(Cl)cc2)cc1)C(=O)O (centres undefined) | 98 to 100
CCOC(OCC)c1coc2cc3c(cc2c1=O)OCO3 | 123 to 125
CN(C)CCCNc1c(-c2ccccc2)c(=O)[nH]c2cc(Cl)ccc12 | 177 to 179
Oc1c(S)cc(I)cc1I | 178 to 180
CNC(=O)c1sc2cnccc2c1Oc1ccc(CO)cc1 | 195 to 196
Cc1ccccc1COC(=O)c1ccc(C(=O)N2Cc3ccccc3Cc3ccccc32)cc1 | 140 to 142
c1ccc(CCOc2c3c(nc4ccccc24)CCN(Cc2ccccc2)CC3)cc1 | < 20
COC(=O)c1cc(NC(=O)c2ccccc2Cl)c2cc(Cc3ccc(F)cc3)cnc2c1O | 230 to 232

Continued, values first:

melting point [°C] | SMILES
106 to 108 | CNC(=O)OC(Cn1ccnc1)c1ccc(Cl)cc1Cl (centres undefined)
51 to 54 | O=C(NCC1CCN(C[C@H]2COc3ccc(Cl)cc3O2)CC1)c1cccc2cccnc12
142 to 144 | COc1ccc(C2CNC(=O)N2C)cc1OC1CC2CCC1C2 (centres undefined)
275 to 276 | Cc1ccccc1-c1c(N)c(=O)oc2cc3c(cc12)CCC3
215 to 220 | CC(C)(C)N1C(=O)c2nc(Cl)cc(N)c2C1=O
155 to 156 | CNc1nc(C)nc(N2CCCC(C)C2)n1 (centres undefined)
150 | CC(C)NC(=O)c1nc(Cl)c(Cl)[nH]1
147 to 148 | COc1ccc(Cn2cnc3c(-c4ccco4)nc(SC)nc32)cc1
229 to 231 | CC(CCC(=O)NC(C)(C)CO)C1CCC2C3C(=O)CC4CC(O)CCC4(C)C3CC(O)C12C (centres undefined)
86 to 89 | CCCCCCC(C(=O)OCC)n1cnc2c([N+](=O)[O-])cccc21 (centres undefined)
110 to 112 | COC(=O)CC1CCc2cc(OC)ccc2C1=O (centres undefined)
90 | CCOC(=O)c1cc(N2C(=O)C3=C(CCCC3)C2=O)ccc1O
262 | O=C(NC1CCC(CCN2CCN(c3nccc4c3CCO4)CC2)CC1)c1ccc(N2CCS(=O)(=O)CC2)cc1 (centres undefined)
135 | Cc1ccccc1N1CCN(CCn2c(=N)sc3cc(OC(F)(F)F)ccc32)CC1
145 to 149 | CC(=O)C1=CCC2C3CCC4CC5OC5CC4(C)C3CCC12C (centres undefined)
89 to 90 | C#CCN1CC[C@H](O)C1=O
114 to 117 | CC(C)(C)OC(=O)N1c2ccccc2CC1c1ccccc1N (centres undefined)

Source: a melting point compilation (Tetko et al.; mined from patent text by program, amines drawn as free bases though some values may be those of a salt)
